These results are taken from PMC7175131, “Synthesis, In Vitro Evaluation and Molecular Docking of the 5-Acetyl-2-aryl-6-hydroxybenzo[b]furans against Multiple Targets Linked to Type 2 Diabetes” (Biomolecules, 2020).

Where “and” joins values, the source holds several entries; their conditions need not be identical. Identical values can stand only once. Like-named read-outs stand apart in the source and are kept apart here.

In data set [1] the target is T1, α-Glucosidase type 1 from baker's yeast (Saccharomyces cerevisiae, UniProt P53341).
T1 construct: purchased Sigma Aldrich (Pty) Ltd
Briefly: biochemical. It counts as biochemical. On the procedure: The IC50 values of these compounds were calculated through the nonlinear regression analysis using Origin Pro 9.0 (OriginLab Corporation, Northampton, MA, USA) and are expressed as the mean standard deviation (SD) of three distinct experiments.

The target in data set [2] is T2, PTP1B (Homo sapiens, UniProt P18031).
T2 construct: purchased Sigma Aldrich, Modderfontein, South Africa
T2 sequence (P18031 1-435): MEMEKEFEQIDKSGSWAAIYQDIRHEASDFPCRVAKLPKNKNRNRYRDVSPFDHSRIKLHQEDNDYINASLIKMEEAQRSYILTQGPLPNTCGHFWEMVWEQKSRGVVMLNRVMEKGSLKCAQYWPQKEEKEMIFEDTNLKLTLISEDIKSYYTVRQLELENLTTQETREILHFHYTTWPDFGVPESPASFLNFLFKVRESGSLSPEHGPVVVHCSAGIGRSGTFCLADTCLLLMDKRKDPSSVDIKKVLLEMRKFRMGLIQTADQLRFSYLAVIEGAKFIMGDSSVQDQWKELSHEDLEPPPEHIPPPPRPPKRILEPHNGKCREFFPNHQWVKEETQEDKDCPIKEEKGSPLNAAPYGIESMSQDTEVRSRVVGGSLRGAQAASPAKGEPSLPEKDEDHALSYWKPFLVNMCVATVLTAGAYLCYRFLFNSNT
Kind of data set: PTP1B inhibition assay (pNPP substrate). In kind it is biochemical. As to conditions: Hepes buffer pH 7.0, triplicate. Here is the method:
Activity of PTPase (Sigma Aldrich, Modderfontein, South Africa) was evaluated using p-nitrophenylphosphate (PNPP) as the substrate. […] The reaction was stopped by the addition of 30 μL of 3 M NaOH and absorbance was determined at wavelength of 410 nm. Control tubes without the enzyme were ran in parallel to nullify the nonenzymatic reaction and for calculating the concentration of p-nitrophenolate ions produced in the reaction mixture.

Data set [3] has as its target T3, human recombinant β-secretase (Homo sapiens, UniProt P56817).
T3 construct: purchased Pan Vera / Thermo Fisher Scientific Corporation; host or cells: baculovirus expression
Briefly: β-secretase (BACE-1) FRET enzyme assay. In kind it is biochemical. Conditions: for IC50: FRET, sodium acetate pH 4.5, 60 min, triplicate. Here is the method:
The assays were conducted in triplicates. […] The percentage inhibition was calculated using the following equation: Inhibition (%)=1–(S –S0)/(C –C0) ×100, where C is the fluorescence of control (enzyme, assay buffer and substrate) after 60 min of incubation, C0 is the fluorescence of control at time 0, S is the fluorescence of tested samples (enzyme, sample solution and substrate) after 60 min. of incubation and S0 the fluorescence of the tested samples at time 0. The IC50 values were calculated with Origin Pro 9.0. (OriginLab Corporation).

Data set [4] can be described thus: DPPH radical scavenging assay. As to conditions: DPPH 0.3 mM in methanol, 45 min in the dark, 512 nm. On the procedure: Antioxidant activities of compounds 2a–h against ascorbic acid (Sigma Aldrich, Saint Louis, Missouri, USA) as a positive control were evaluated using 2,2-diphenyl-1-picrylhydrazyl (DPPH) radical scavenging assay following a reported method by Zhu et al.. Triplicate solutions of the test compounds and the control in methanol (concentrations ranging from 0 µM to 50 µM) were treated with a solution of DPPH (0.3 mM) in methanol. The mixtures were incubated in the dark for 45 min and the absorbances were recorded at the wavelength of 512 nm using Varioskan flash microplate spectrophotometer reader. The inhibition was calculated in terms of percentage using the formula below, DPPH radical scavenged (%)=AbC − AbS/AbC×100, where AbC is absorbance of control and AbS the absorbance of the test sample. A graph of percentage inhibition of free radical activity was plotted against concentration of the sample.
In general terms: The DPPH test is a chemical assay of radical scavenging.

Another data set deals with T4, cyclooxygenase-2 (COX-2) (Homo sapiens, UniProt P35354).
T4 sequence (P35354 18-604): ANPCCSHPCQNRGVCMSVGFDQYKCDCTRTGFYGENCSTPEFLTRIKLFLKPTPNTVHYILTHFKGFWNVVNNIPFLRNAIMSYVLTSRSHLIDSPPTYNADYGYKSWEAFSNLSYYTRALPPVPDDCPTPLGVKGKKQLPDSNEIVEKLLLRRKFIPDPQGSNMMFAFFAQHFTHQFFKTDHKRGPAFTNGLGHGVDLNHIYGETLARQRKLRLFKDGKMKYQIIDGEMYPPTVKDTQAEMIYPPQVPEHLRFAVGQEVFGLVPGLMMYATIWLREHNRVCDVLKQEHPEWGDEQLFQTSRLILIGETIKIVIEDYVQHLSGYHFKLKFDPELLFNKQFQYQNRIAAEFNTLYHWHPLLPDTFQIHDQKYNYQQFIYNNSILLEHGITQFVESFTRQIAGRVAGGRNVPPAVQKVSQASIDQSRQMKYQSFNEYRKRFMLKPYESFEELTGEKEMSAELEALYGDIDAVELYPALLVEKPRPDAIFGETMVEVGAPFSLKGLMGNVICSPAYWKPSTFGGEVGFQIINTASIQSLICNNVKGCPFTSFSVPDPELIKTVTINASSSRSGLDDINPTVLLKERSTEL
Kind of data set: COX-2 inhibitor screening kit assay. Conditions: COX-2 IC50, means from duplicate runs.

A further data set deals with T5, α-glucosidase (Saccharomyces cerevisiae, UniProt P53341).
T5 construct: purchased Sigma Aldrich (Pty) Ltd
Briefly: Kinetic studies towards α-glucosidase inhibition (Lineweaver-Burk and Dixon plots). It counts as biochemical. As to conditions: for mode of inhibition of α-glucosidase: Lineweaver-Burk and Dixon plots; for Ki: inhibitor 0.5-20 µM, substrate 0–25 µM, read-out: Ki (Dixon plot), α-glucosidase. Here is the method:
The α-glucosidase inhibitory activity of compounds 2a–h was evaluated in triplicates in a 96 well microplate following a protocol by Shi et al.. […] Then 20 µL of 2 mM PNP-G was added and the absorbances were recorded at a wavelength of 405 nm using Varioskan flash microplate spectrophotometer (Thermo Scientific, Waltham, MA, USA). The IC50 values of these compounds were calculated through the nonlinear regression analysis using Origin Pro 9.0 (OriginLab Corporation, Northampton, MA, USA) and are expressed as the mean standard deviation (SD) of three distinct experiments.
The kinetics studies on compounds 2c and 2h were performed according to the reaction conditions in 2.3.1 with inhibitors of various concentrations (0.5, 5, 10, 20 µM) and the ranges of final substrate concentration were 0–25 µM. The type of inhibition was determined by using Lineweave-Burk plot (the inverse of velocity (1/v) against the inverse of the substrate concentration (1/[S]). The inhibitor constant was obtained by Dixon plot (the inverse of velocity (1/v) against concentration of inhibitor at each substrate concentration).

The target in data set [5] is T2, PTP1B. Briefly: Kinetic studies towards PTP1B inhibition (Lineweaver-Burk and Dixon plots). It counts as biochemical. As to conditions: for mode of inhibition of PTP1B: Lineweaver-Burk and Dixon plots; for Ki: inhibitor 0.5-20 µM, substrate 0-25.0 µM, read-out: Ki (Dixon plot), PTP1B. Here is the method:
The PTP1B inhibitory activity of compounds 2a–h and sodium orthovanadate was evaluated in triplicates in a 96 well microplate following a protocol by Goldstein et al.. Activity of PTPase (Sigma Aldrich, Modderfontein, South Africa) was evaluated using p-nitrophenylphosphate (PNPP) as the substrate. A 10 μL of PTP1B solution (0.02 U/mL) in 50 mM Hepes buffer (pH 7.0) with different concentrations (0.5, 10, 25, 50, 100 μM) of the test compounds and the reference standard were incubated at 25 °C for 10 min. After pre-incubation, 25 μL of HEPES buffer and 25 μL of 2 mM (pNPP) were added and the mixtures were incubated at 37 °C for 30 min. The reaction was stopped by the addition of 30 μL of 3 M NaOH and absorbance was determined at wavelength of 410 nm. Control tubes without the enzyme were ran in parallel to nullify the nonenzymatic reaction and for calculating the concentration of p-nitrophenolate ions produced in the reaction mixture. A molar extinction coefficient of 1.78 ×10^4 M^-1 cm^-1 was used to calculate the concentration of p-nitrophenolate ions produced in the reaction mixture.
Compounds 2c and 2h were subjected to kinetic analysis following the procedure outlined in 2.3.2 with inhibitors of various concentrations (0.5, 5, 10, 20 µM). The assay was performed with substrate of various concentrations (0, 2.5, 6.25, 12.5, 25.0 µM). The absorbance due to the p-nitrophenol produced by dephosphorylation of PTP1B was measured at 405 nm. The kinetic parameters were determined using Lineweaver-Burk double-reciprocal plots and the Dixon the Dixon plot method at increasing substrate and compound concentrations.

Setting [6] is: yeast enzyme, PNP-G substrate, pH 6.8, 37 °C, mean ± SD, triplicate, read-out: IC50 α-Glucosidase.

T1 sequence (P53341 whole entry): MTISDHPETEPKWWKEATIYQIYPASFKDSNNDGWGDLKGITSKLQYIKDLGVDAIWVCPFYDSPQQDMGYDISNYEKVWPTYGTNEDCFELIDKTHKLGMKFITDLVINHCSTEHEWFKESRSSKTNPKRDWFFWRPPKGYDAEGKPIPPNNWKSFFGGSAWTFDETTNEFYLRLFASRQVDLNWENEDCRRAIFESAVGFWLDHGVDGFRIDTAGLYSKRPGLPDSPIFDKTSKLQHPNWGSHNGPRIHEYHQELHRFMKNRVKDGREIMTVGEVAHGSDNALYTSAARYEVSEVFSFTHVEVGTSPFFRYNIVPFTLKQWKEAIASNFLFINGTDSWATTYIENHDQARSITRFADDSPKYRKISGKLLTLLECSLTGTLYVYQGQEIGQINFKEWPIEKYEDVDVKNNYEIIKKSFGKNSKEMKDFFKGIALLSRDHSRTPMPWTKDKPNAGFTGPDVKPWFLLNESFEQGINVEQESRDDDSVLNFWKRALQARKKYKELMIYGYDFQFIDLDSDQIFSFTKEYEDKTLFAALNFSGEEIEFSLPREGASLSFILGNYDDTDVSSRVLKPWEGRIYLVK
T5 sequence (P53341 whole entry): as above
T3 sequence (P56817 46-501): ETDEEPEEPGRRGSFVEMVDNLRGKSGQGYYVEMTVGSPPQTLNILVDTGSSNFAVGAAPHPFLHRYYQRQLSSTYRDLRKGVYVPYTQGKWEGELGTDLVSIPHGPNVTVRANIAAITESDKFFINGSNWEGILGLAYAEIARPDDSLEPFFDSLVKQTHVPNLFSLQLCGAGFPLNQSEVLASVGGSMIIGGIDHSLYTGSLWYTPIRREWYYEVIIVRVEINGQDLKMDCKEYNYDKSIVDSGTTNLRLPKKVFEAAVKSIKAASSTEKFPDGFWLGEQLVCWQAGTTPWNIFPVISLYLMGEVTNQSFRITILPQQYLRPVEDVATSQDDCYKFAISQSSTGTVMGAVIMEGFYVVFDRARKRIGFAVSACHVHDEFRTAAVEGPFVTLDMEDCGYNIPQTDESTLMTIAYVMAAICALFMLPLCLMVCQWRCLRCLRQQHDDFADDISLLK
Protocol for cyclooxygenase-2 (COX-2): The absorbance was measured using a Varioskan flash microplate spectrophotometer and the IC50 values were calculated with the aid of Origin Pro 9.0.

One may read the IC50 as the concentration needed to halve the response being measured. For `COc1ccc(-c2cc3cc(C(C)=O)c(O)cc3o2)cc1` [Compound 2g, 1-[6-Hydroxy-2-(4-methoxyphenyl)benzofuran-5-yl]ethanone], the IC50 was 0.56 ± 0.24 µM in data set [1] (setting [6]); 31.9 µM against PTP1B [2]; 27.3 ± 1.1 µM in data set [3]; 16.8 ± 0.38 µM in data set [4]; 2.3 µM and 2.33 µM against cyclooxygenase-2 (COX-2).

In data set [4], `O=C1O[C@H]([C@@H](O)CO)C(O)=C1O` [Ascorbic acid, ascorbic acid, reference compound] came in with an IC50 of 10.7 ± 0.42 µM.

What is called Ki is a dissociation constant, usually derived from enzyme kinetics or from competition with a known ligand. Usually melting point stands for the temperature of the solid-liquid transition. In turn, `COc1cc(OC)cc(-c2cc3cc(C(C)=O)c(O)cc3o2)c1` [Compound 2h, 1-[6-Hydroxy-2-(3,5-dimethoxyphenyl)benzofuran-5-yl]ethanone] came in with a melting point of 155 to 156 °C. Moreover, the IC50 in data set [1] (setting [6]) came to 0.78 ± 0.31 µM. This molecule came in with a half-inhibitory concentration (IC50) against PTP1B [2] of 11.9 ± 0.35 µM. The half-maximal inhibitory concentration (IC50) in data set [3] came to 25.8 ± 0.08 µM. The molecule also had an IC50 in data set [4] of 6.28 ± 0.33 µM. At α-glucosidase, the “mode of inhibition of α-glucosidase” value was “mixed mode” and the Ki came out at 5.11 ± 0.42 µM. Moreover, the “Vmax, α-glucosidase in presence of inhibitor” value on α-glucosidase (unchanged with inhibitor concentration) worked out at 0.19. In addition, at PTP1B [5], the “mode of inhibition of PTP1B” value is reported as “non-competitive” and the Ki is 0.49 ± 0.01 µM. At cyclooxygenase-2 (COX-2), this molecule displayed an IC50 of 99.6 ± 2.6 µM.

In the case of `CC(=O)c1cc2cc(-c3ccc(F)cc3)oc2cc1O` [Compound 2c, 1-[2-(4-Fluorophenyl)-6-hydroxybenzofuran-5-yl]ethanone], the IC50 in data set [1] (setting [6]) was 0.11 ± 0.04 µM; at PTP1B [2], 17.8 µM; in data set [3] it was over 100 µM; in data set [4], 9.8 µM and 9.82 µM; against cyclooxygenase-2 (COX-2) it was 2.8 µM and 2.81 µM. Further, on α-glucosidase, the “mode of inhibition of α-glucosidase” value is “non-competitive”. Moreover, the Ki at α-glucosidase is 15.09 ± 0.03 µM; at PTP1B [5], 5.2 ± 0.1 µM. Further, the “mode of inhibition of PTP1B” value at PTP1B [5] is recorded as “mixed-type”.

Regarding `CC(=O)c1cc2cc(-c3ccc(Cl)cc3)oc2cc1O` [Compound 2e, 1-[2-(4-Chlorophenyl)-6-hydroxybenzofuran-5-yl]ethanone], the melting point lay in the range of 170 to 173 °C. Moreover, the IC50 in data set [1] stood at 64.9 ± 0.05 µM. At PTP1B [2], this molecule returned an IC50 of 21.5 µM. In addition, the IC50 in data set [3] was over 100 µM. Besides, the IC50 in data set [4] worked out at 11.3 ± 1.2 µM.

For the molecule `CC(=O)c1cc2cc(-c3ccc(C)cc3)oc2cc1O` [Compound 2f, 1-[6-Hydroxy-2-(4-tolyl)benzofuran-5-yl]ethanone], the melting point lay within 169 to 172 °C. Besides, in data set [1], the 50% inhibitory concentration (IC50) was found to be 14.05 ± 0.07 µM. The IC50 against PTP1B [2] worked out at 26.7 µM. Moreover, in data set [3], the “activity against β-secretase (in words)” value was “inactive” and the IC50 was over 100 µM. The molecule also displayed an IC50 in data set [4] of 26.7 ± 0.62 µM.

Take `CC(=O)c1cc2cc(-c3ccccc3)oc2cc1O` [Compound 2a, 1-[6-Hydroxy-2-phenylbenzofuran-5-yl]ethanone]: the IC50 was over 100 µM in data set [1], 23 ± 0.23 µM on PTP1B [2], 63.15 ± 0.07 µM in data set [3] and 12.2 ± 2.1 µM in data set [4]. For the same molecule, the “activity against α-glucosidase (in words)” value in data set [1] (tested 0–100 μM) is given as “No activity”.

As for `CC(=O)c1cc2cc(-c3cccc(Cl)c3)oc2cc1O` [Compound 2d, 1-[2-(3-Chlorophenyl)-6-hydroxybenzofuran-5-yl]ethanone], the IC50 in data set [1] (setting [6]) was over 100 µM; against PTP1B [2], 29.3 µM; in data set [3], over 100 µM; in data set [4], 15.5 ± 0.21 µM.

For the molecule `CC(=O)c1cc2cc(-c3cccc(F)c3)oc2cc1O` [Compound 2b, 1-[2-(3-Fluorophenyl)-6-hydroxybenzofuran-5-yl]ethanone], the IC50 in data set [1] (setting [6]) was 4.65 ± 0.13 µM; at PTP1B [2] it was 24.5 ± 0.29 µM; in data set [3] it was over 100 µM; in data set [4], 46.5 ± 0.24 µM.
